Molecular target: T1, Angereicherte γ-Glutamyl-Transpeptidasen (Bacillus subtilis subsp. natto, UniProt P63186)
T1 construct: Angereicherte γ-Glutamyl-Transpeptidasen der in Beispiel 3 genannten Mikroorganismen; endogenous in cells; host or cells: Bacillus subtilis "natto" IFO 3025, enzyme enriched from the culture
Test: Incubation of enriched enzyme with cephalosporin substrates (hydrolysis to D-α-Aminoadipinsäure and nucleus)
Type: biochemical
Conditions: enriched enzyme from Bacillus subtilis; hydrolysis to D-α-Aminoadipinsäure and Desacetyl-7ACA or 7ACA
Excerpt: Angereicherte γ-Glutamyl-Transpeptidasen der in Beispiel 3 genannten Mikroorganismen wurden mit Desacetyl-Cephalosporin C inkubiert. Nur das Enzym aus Bacillus subtilis, welches auch AAA-AMC spaltet, kann Desacetyl-Cephalosporin C und Cephalosporin C zu D-α-Aminoadipinsäure und Desacetyl-7ACA (18 % Umsetzung) bzw. 7ACA (3 % Umsetzung) hydrolysieren.

T1 sequence (P63186 36-587): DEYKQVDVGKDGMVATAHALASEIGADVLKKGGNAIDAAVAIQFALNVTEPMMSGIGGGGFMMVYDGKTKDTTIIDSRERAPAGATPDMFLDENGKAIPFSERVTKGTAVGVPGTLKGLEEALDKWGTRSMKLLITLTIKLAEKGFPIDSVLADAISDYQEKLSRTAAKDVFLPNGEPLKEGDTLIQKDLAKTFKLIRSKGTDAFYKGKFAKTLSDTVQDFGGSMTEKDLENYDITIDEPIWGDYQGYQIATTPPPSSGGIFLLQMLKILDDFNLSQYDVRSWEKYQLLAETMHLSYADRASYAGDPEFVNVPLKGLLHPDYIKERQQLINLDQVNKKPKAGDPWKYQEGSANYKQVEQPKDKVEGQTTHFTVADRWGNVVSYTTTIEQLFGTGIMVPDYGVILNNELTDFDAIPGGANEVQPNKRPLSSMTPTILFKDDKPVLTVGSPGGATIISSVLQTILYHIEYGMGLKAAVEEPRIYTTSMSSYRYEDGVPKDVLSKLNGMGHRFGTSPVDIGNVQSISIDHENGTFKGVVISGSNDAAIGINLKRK

| SMILES | Umsetzung |
| --- | --- |
| CC(=O)OCC1=C(C(=O)O)N2C(=O)[C@@H](NC(=O)CCC[C@@H](N)C(=O)O)[C@H]2SC1 [Cephalosporin C] | 3% |
| N[C@H](CCCC(=O)N[C@@H]1C(=O)N2C(C(=O)O)=C(CO)CS[C@H]12)C(=O)O [Desacetyl-Cephalosporin C] | 18% |
